Measurements reported in patent publication US20250255981A1, “IMMUNOMODULATORY ANTIBODY-DRUG CONJUGATES” (Seagen Inc., priority 2022, published 2025).

Columns and labels:
[1] = test system: human CD228-LL2 tumor-bearing mice; assay: In vivo cytokine assay, human CD228-LL2 tumor-bearing mice; design: species or system mouse
Procedure: Cytokines were measured in mouse plasma harvested at 3, 6, 24, or 48 hours after treatment with compounds or ADCs using a Milliplex MAP mouse cytokine/chemokine magnetic bead panel assay kit (MCYTOMAG-70k custom 11-plex kit: MCP1, MIP1a, MIP1(3, TNFα, IFNγ, IL-10, IL-12p70, IL-6, IL-1β, IP10, RANTES) and analyzed using a Luminex™ MAGPIX™ Instrument System. Values that were outside of the standard curve range (<3.2 or >10,000 μg/mL) were either excluded from calculation of the mean values or, when indicated, converted to 3.2 or 10,000 μg/mL for calculation of the mean values.
LL2 cancer cells were engineered using lentiviral transduction to express human CD228. LL2 cells were cultured in DMEM (ATCC) with 10% heat-inactivated fetal bovine serum. Female C57BL/6 mice were implanted with 1×10^6 hCD228-LL2 tumor cells in 100 μL 25% Matrigel in RPMI 1640 medium subcutaneously. Once tumor volumes reached 100 mm^3, mice were randomized into treatment groups and dosed as indicated. […] Stock concentrations of mAb or conjugates were diluted to a desired concentration (with 20 mM His, 6% Trehalose or 0.01% Tween20 in PBS) and injected intraperitoneally (i.p.) or intravenously (i.v.) as indicated. The small molecule was formulated in 40% PEG400 in saline and injected i.v.

Renca tumor-bearing mice = assay: In vivo cytokine assay, Renca tumor-bearing mice; design: species or system mouse; settings: for IFNγ in plasma / IL1β in plasma / IL12p70 in plasma / IL-6 in plasma / IL-10 in plasma / IP10 in plasma / MCP-1 in plasma / MIP1α in plasma / MIP1β in plasma: 1.86 mg/kg
Procedure: Cytokines were measured in mouse plasma harvested at 3, 6, 24, or 48 hours after treatment with compounds or ADCs using a Milliplex MAP mouse cytokine/chemokine magnetic bead panel assay kit (MCYTOMAG-70k custom 11-plex kit: MCP1, MIP1a, MIP1(3, TNFα, IFNγ, IL-10, IL-12p70, IL-6, IL-1β, IP10, RANTES) and analyzed using a Luminex™ MAGPIX™ Instrument System. Values that were outside of the standard curve range (<3.2 or […]) were either excluded from calculation of the mean values or, when indicated, converted to […] for calculation of the mean values.
Renca cancer cells (ATCC) were cultured in RPMI-1640 (ATCC) with 10% heat-inactivated fetal bovine serum, Pen-Strep (100 U/mL-100 μg/mL), MEM non-essential amino acids (1×), sodium pyruvate (1 mM), and L-glutamine (2 mM). Renca cancer cells were implanted (2*10^6 cells in 200 μL 25% Matrigel) subcutaneously into Balb/c female mice. In some experiments, Renca tumor cells were engineered to express the indicated murine or human target antigen.
(§1) When tumor volumes reached 100 mm^3, the mice were dosed with either compounds or ADCs by intraperitoneal or intravenous injection at the indicated dosing schedule and tumor volumes were monitored twice weekly. Compounds were formulated in 40% PEG400 in saline.
(§2) A syngeneic system was used to assess the ability of the STING agonist ADCs to induce immune responses in vivo and drive an anti-tumor immune response. The Renca system is a subcutaneous, mouse renal adenocarcinoma model. Female Balb/c mice were implanted with 2×10^6 Renca cells subcutaneously in the flank on day 0. When mean tumor size of 100 mm^3 (measured by using the formula Volume (mm^3)=0.5*Length*Width^2 where length is the longer dimension) was reached mice were randomized into treatment groups of ≥5 mice per group. Animals were then treated intraperitoneally (ADCs or compounds) or intravenously (compounds) with the indicated treatment every 7 days, for 3 doses total (or as indicated). Tumor length and width and the weight of the animals was measured throughout the study and tumor volume was calculated using the formula above. Animals were followed until the tumor volume reached ˜1000 mm^3; animals were then euthanized.

[2] = test system: THP1-Dual™ cells (IRF-Lucia luciferase reporter); assay: THP1-Dual™ cell reporter assay; assay type: cell-based, human; settings: free drug, 24 h (48 h elsewhere in the source)
Procedure: Potency of compounds and ADCs was evaluated using the THP1-Dual™ cells (Invivogen PN: thpd-nfis [also referred to as THP1 dual reporter cells]), which contain an IRF-Lucia luciferase reporter. Cells were cultured in RPMI-1640 (Gibco) with 10% heat-inactivated fetal bovine serum, Pen-Strep (100 U/mL-100 […], Gibco), HEPES (10 mM, Gibco)), sodium pyruvate (1 mM, Gibco), MEM non-essential amino acids (1×, Gibco), GlutaMAX (1×, Gibco), and beta-mercaptoethanol (55 μM, Gibco). Cells were plated in a 96-well flat bottom tissue culture-treated clear polystyrene plate (Corning Costar #3596) at ˜100,000 cells per well in 200 μL with the indicated concentration of the compound or ADC. The supernatant was harvested at 24 hours (compounds) or 48 hours (ADC) post plating for the reporter assay, or as indicated. To measure Lucia reporter signal, 10 µL of the supernatant was combined with 40 µL of QUANTI-Luc™ Luminescence assay reagent (Invivogen PN: rep-qlc1) in a 96-well clear flat bottom tissue culture-treated black polystyrene plate (Corning Costar #3603) and read on a Perkin Elmer Envision plate reader.

Renca cancer cells = assay: In vivo anti-tumor activity, Renca tumor model
Procedure: In some experiments, Renca tumor cells were engineered to express the indicated murine or human target antigen.
as §1, §2

[3] = dose 1, 6 h, 0.08 mg/kg Q7Dx3 i.v.
[4] = dose 1, 6 h, 1.5 mg/kg Q7Dx3 i.v.
[5] = dose 2, 6 h, 0.08 mg/kg Q7Dx3 i.v.
[6] = dose 2, 6 h, 1.5 mg/kg Q7Dx3 i.v.
[7] = dose 3, 6 h, 0.08 mg/kg Q7Dx3 i.v.
[8] = dose 3, 6 h, 1.5 mg/kg Q7Dx3 i.v.

`CCn1nc(C)cc1C(=O)Nc1nc2cc(C(N)=O)cc(OC)c2n1C/C=C/Cn1c(NC(=O)c2cc(C)nn2CC)nc2cc(C(N)=O)cc(OCCCN3CCOCC3)c21.O=C(O)C(F)(F)F.O=C(O)C(F)(F)F.O=C(O)C(F)(F)F` [Compound A, (E)-1-(4-(5-carbamoyl-2-(1-ethyl-3-methyl-1H-pyrazole-5-carboxamido)-7-(3-morpholinopropoxy)-1H-benzo[d]imidazol-1-yl)but-2-en-1-yl)-2-(1-ethyl-3-methyl-1H-pyrazole-5-carboxamido)-7-methoxy-1H-benzo[d]imidazole-5-carboxamide tris(2,2,2-trifluoroacetate)] was tested, and the “IFNg, peripheral blood (plasma), mean” value [1, 3] was 9.8 pg/mL, the “IL1b, peripheral blood (plasma), mean” value [1, 3] was 12.1 pg/mL and the “IL-6, peripheral blood (plasma), mean” value [1, 3] was 346.7 pg/mL. For the same compound, the “IL-10, peripheral blood (plasma), mean” value [1, 3] was 15.8 pg/mL, the “IL-12p70, peripheral blood (plasma), mean” value (shortened to “IL-12p70, peripheral blood”) [1, 3] was 3.0 pg/mL and the “IP10, peripheral blood (plasma), mean” value [1, 3] was 7501.0 pg/mL. The “MCP-1, peripheral blood (plasma), mean” value [1, 3] was 3780.5 pg/mL, the “MIP1a, peripheral blood (plasma), mean” value [1, 3] was 107.1 pg/mL and the “MIP1b, peripheral blood (plasma), mean” value [1, 3] was 474.6 pg/mL. The “RANTES, peripheral blood (plasma), mean” value [1, 3] was 33.9 pg/mL, the “TNFa, peripheral blood (plasma), mean” value [1, 3] was 11.0 pg/mL and the “IFNg, peripheral blood (plasma), mean” value [1, 4] was 392.4 pg/mL. For the same compound, the “IL1b, peripheral blood (plasma), mean” value [1, 4] was 38.0 pg/mL, the “IL-6, peripheral blood (plasma), mean” value [1, 4] was 10532.0 pg/mL and the “IL-10, peripheral blood (plasma), mean” value [1, 4] was 71.5 pg/mL. For the same compound, the “IL-12p70, peripheral blood” value [1, 4] was 32.3 pg/mL, the “IP10, peripheral blood (plasma), mean” value [1, 4] was >10000 pg/mL and the “MCP-1, peripheral blood (plasma), mean” value [1, 4] was 10000.0 pg/mL. For the same compound, the “MIP1a, peripheral blood (plasma), mean” value [1, 4] was 574.2 pg/mL, the “MIP1b, peripheral blood (plasma), mean” value [1, 4] was 4253.1 pg/mL and the “RANTES, peripheral blood (plasma), mean” value [1, 4] was 1705.3 pg/mL. For the same compound, the “TNFa, peripheral blood (plasma), mean” value [1, 4] was 95.7 pg/mL, the “IFNg, peripheral blood (plasma), mean” value [1, 5] was 11.7 pg/mL and the “IL1b, peripheral blood (plasma), mean” value [1, 5] was 26.2 pg/mL. The “IL-6, peripheral blood (plasma), mean” value [1, 5] was 936.6 pg/mL, the “IL-10, peripheral blood (plasma), mean” value [1, 5] was 9.5 pg/mL and the “IL-12p70, peripheral blood” value [1, 5] was 9.7 pg/mL. For the same compound, the “IP10, peripheral blood (plasma), mean” value [1, 5] was 9045.3 pg/mL, the “MCP-1, peripheral blood (plasma), mean” value [1, 5] was 7114.6 pg/mL and the “MIP1a, peripheral blood (plasma), mean” value [1, 5] was 206.0 pg/mL. The “MIP1b, peripheral blood (plasma), mean” value [1, 5] was 1550.3 pg/mL, the “RANTES, peripheral blood (plasma), mean” value [1, 5] was 236.6 pg/mL and the “TNFa, peripheral blood (plasma), mean” value [1, 5] was 18.4 pg/mL. For the same compound, the “IFNg, peripheral blood (plasma), mean” value [1, 6] was 1550.6 pg/mL, the “IL1b, peripheral blood (plasma), mean” value [1, 6] was 57.4 pg/mL and the “IL-6, peripheral blood (plasma), mean” value [1, 6] was 22725.1 pg/mL. For the same compound, the “IL-10, peripheral blood (plasma), mean” value [1, 6] was 92.3 pg/mL, the “IL-12p70, peripheral blood” value [1, 6] was 75.4 pg/mL and the “IP10, peripheral blood (plasma), mean” value [1, 6] was >10000 pg/mL. For the same compound, the “MCP-1, peripheral blood (plasma), mean” value [1, 6] was >10000 pg/mL, the “MIP1a, peripheral blood (plasma), mean” value [1, 6] was 846.6 pg/mL and the “MIP1b, peripheral blood (plasma), mean” value [1, 6] was 5235.4 pg/mL. For the same compound, the “RANTES, peripheral blood (plasma), mean” value [1, 6] was 1906.1 pg/mL, the “TNFa, peripheral blood (plasma), mean” value [1, 6] was 204.0 pg/mL and the “IFNg, peripheral blood (plasma), mean” value [1, 7] was 21.9 pg/mL. For the same compound, the “IL1b, peripheral blood (plasma), mean” value [1, 7] was 66.6 pg/mL, the “IL-6, peripheral blood (plasma), mean” value [1, 7] was 1494.7 pg/mL and the “IL-10, peripheral blood (plasma), mean” value [1, 7] was 36.3 pg/mL. The “IL-12p70, peripheral blood” value [1, 7] was 220.3 pg/mL, the “IP10, peripheral blood (plasma), mean” value [1, 7] was 7718.5 pg/mL and the “MCP-1, peripheral blood (plasma), mean” value [1, 7] was 5009.1 pg/mL. The “MIP1a, peripheral blood (plasma), mean” value [1, 7] was 270.0 pg/mL, the “MIP1b, peripheral blood (plasma), mean” value [1, 7] was 1009.6 pg/mL and the “RANTES, peripheral blood (plasma), mean” value [1, 7] was 172.9 pg/mL. The “TNFa, peripheral blood (plasma), mean” value [1, 7] was 29.6 pg/mL, the “IFNg, peripheral blood (plasma), mean” value [1, 8] was 1236.8 pg/mL and the “IL1b, peripheral blood (plasma), mean” value [1, 8] was 36.8 pg/mL. The “IL-6, peripheral blood (plasma), mean” value [1, 8] was 14635.1 pg/mL, the “IL-10, peripheral blood (plasma), mean” value [1, 8] was 62.8 pg/mL and the “IL-12p70, peripheral blood” value [1, 8] was 43.9 pg/mL. The “IP10, peripheral blood (plasma), mean” value [1, 8] was >10000 pg/mL, the “MCP-1, peripheral blood (plasma), mean” value [1, 8] was >10000 pg/mL and the “MIP1a, peripheral blood (plasma), mean” value [1, 8] was 743.4 pg/mL. For the same compound, the “MIP1b, peripheral blood (plasma), mean” value [1, 8] was 4517.1 pg/mL, the “RANTES, peripheral blood (plasma), mean” value [1, 8] was 2533.7 pg/mL and the “TNFa, peripheral blood (plasma), mean” value [1, 8] was 195.3 pg/mL. For the same compound, the IFNγ in plasma (Renca tumor-bearing mice; 3 h after treatment) was 0.3 pg/mL, the IL1β in plasma (Renca tumor-bearing mice; 3 h after treatment) was 1.5 pg/mL and the IL12p70 in plasma (Renca tumor-bearing mice; 3 h after treatment) was 0.2 pg/mL. The IL-6 in plasma (Renca tumor-bearing mice; 3 h after treatment) was 3550 pg/mL, the IL-10 in plasma (Renca tumor-bearing mice; 3 h after treatment) was 0.5 pg/mL and the IP10 in plasma (Renca tumor-bearing mice; 3 h after treatment) was 4780 pg/mL. The MCP-1 in plasma (Renca tumor-bearing mice; 3 h after treatment) was 14500 pg/mL, the MIP1α in plasma (Renca tumor-bearing mice; 3 h after treatment) was 1300 pg/mL and the MIP1β in plasma (Renca tumor-bearing mice; 3 h after treatment) was 6370 pg/mL. The IFNγ in plasma (Renca tumor-bearing mice; 6 h after treatment) was 71.8 pg/mL, the IL1β in plasma (Renca tumor-bearing mice; 6 h after treatment) was 0.6 pg/mL and the IL12p70 in plasma (Renca tumor-bearing mice; 6 h after treatment) was 0.2 pg/mL. The IL-6 in plasma (Renca tumor-bearing mice; 6 h after treatment) was 732 pg/mL, the IL-10 in plasma (Renca tumor-bearing mice; 6 h after treatment) was < 3.2 pg/mL and the IP10 in plasma (Renca tumor-bearing mice; 6 h after treatment) was 4980 pg/mL. The MCP-1 in plasma (Renca tumor-bearing mice; 6 h after treatment) was 10800 pg/mL, the MIP1α in plasma (Renca tumor-bearing mice; 6 h after treatment) was 209 pg/mL and the MIP1β in plasma (Renca tumor-bearing mice; 6 h after treatment) was 2150 pg/mL. The IFNγ in plasma (Renca tumor-bearing mice; 24 h after treatment) was < 3.2 pg/mL, the IL1β in plasma (Renca tumor-bearing mice; 24 h after treatment) was 0.3 pg/mL and the IL12p70 in plasma (Renca tumor-bearing mice; 24 h after treatment) was < 3.2 pg/mL. For the same compound, the IL-6 in plasma (Renca tumor-bearing mice; 24 h after treatment) was 16.4 pg/mL, the IL-10 in plasma (Renca tumor-bearing mice; 24 h after treatment) was < 3.2 pg/mL and the IP10 in plasma (Renca tumor-bearing mice; 24 h after treatment) was 890 pg/mL. The MCP-1 in plasma (Renca tumor-bearing mice; 24 h after treatment) was 540 pg/mL, the MIP1α in plasma (Renca tumor-bearing mice; 24 h after treatment) was 41.7 pg/mL and the MIP1β in plasma (Renca tumor-bearing mice; 24 h after treatment) was 35.5 pg/mL. The “systemic pro-inflammatory cytokine (IL-6 and TNF) production” value (Renca tumor-bearing mice; plasma) was “induced robust production of IL-6 and TNF”, the “relative potency of free drug, Lucia reporter” value [2] was “significantly more potent than (2′, 3′)-Rp,Rpc-diAMPS disodium (Compound B)” and the “tolerability” value (Renca cancer cells; Renca tumor-bearing mice) was “less well tolerated”. It also gave an average weight loss (Renca cancer cells; after the 2nd dose) of 6.2%.
